Where two headings read alike, the source gives them in different places.
Tests used:
CYP2C9 = CYP2C9 (Homo sapiens (Human), UniProt P11712); test: CYP inhibition assay, tolbutamide methyl-hydroxylation (Test Example 4); format: in vitro ADME; settings: pooled human hepatic microsome, 100 μmol/L tolbutamide, 15 minutes, 37° C.
Protocol: Using commercially available pooled human hepatic microsome, and employing, as markers, 7-ethoxyresorufin O-deethylation (CYP1A2), tolbutamide methyl-hydroxylation (CYP2C9), mephenytoin 4′-hydroxylation (CYP2C19), dextromethorphan O-demethylation (CYP2D6), and terfenadine hydroxylation (CYP3A4) as typical substrate metabolism reactions of human main five CYP enzyme forms (CYP1A2, 2C9, 2C19, 2D6, 3A4) an inhibitory degree of each metabolite production amount by a test compound was assessed.
The reaction conditions were as follows: substrate, 0.5 μmol/L ethoxyresorufin (CYP1A2), 100 μmol/L tolbutamide (CYP2C9), 50 μmol/L S-mephenytoin (CYP2C19), 5 μmol/L dextromethorphan (CYP2D6), 1 μmol/L terfenedine (CYP3A4); reaction time, 15 minutes; reaction temperature, 37° C.; enzyme, pooled human hepatic microsome 0.2 mg protein/mL; test drug concentration, 1, 5, 10, 20 μmol/L (four points).
Each five kinds of substrates, human hepatic microsome, and a test drug in 50 mmol/L Hepes buffer as a reaction solution was added to a 96-well plate as the composition ad described above, NADPH, as a coenzyme was added to initiate metabolism reactions as markers and, after the incubation at 37° C. for 15 minutes, a methanol/acetonitrile=1/1 (V/V) solution was added to stop the reaction. After the centrifugation at 3000 rpm for 15 minutes, resorufin (CYP1A2 metabolite) in the supernatant was quantified by a fluorescent multilabel counter and tolbutamide hydroxide (CYP2C9 metabolite), mephenytoin 4′ hydroxide (CYP2C19 metabolite), dextrorphan (CYP2D6 metabolite), and terfenadine alcohol (CYP3A4 metabolite) were quantified by LC/MS/MS.

HIV = format: cell-based; settings: EC50 in the presence of human serum (25%) versus without human serum, MT-4 cells
Summary of the method: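 Compound is preincubated 1 h at room temperature with human serum, or with medium alone as the serum-free control. MT-4 cells infected with HIV (1 h, 37° C) are added and cultured 4 days. EC50 is determined with and without serum; their ratio gives the potency shift.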

[1] = system: T125A mutant virus (HIV-1 NL-432 recombinant molecular clone, IN gene); test: HIV replication inhibition assay against integrase 124/125 mutant virus (Test Example 2); format: cell-based
Summary of the method: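 MT-4 cells (2.5×10^4 per well) infected with 60 pfu of 293T-derived HIV-1 NL-432 clone carrying integrase 124/125 point mutations, in presence of compound, cultured 4 days at 37 °C. Viability by MTT formazan at 560/690 nm; EC50 = concentration inhibiting 50% of virus-induced cytotoxicity.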

CYP3A4 = CYP3A4 (Homo sapiens (Human), UniProt P08684); test: CYP3A4 (MDZ) MBI test (Test Example 6); settings: pooled human liver microsomes, midazolam 1-hydroxylation, preincubation 0 or 30 min
Sequence of CYP3A4 (P08684 whole entry): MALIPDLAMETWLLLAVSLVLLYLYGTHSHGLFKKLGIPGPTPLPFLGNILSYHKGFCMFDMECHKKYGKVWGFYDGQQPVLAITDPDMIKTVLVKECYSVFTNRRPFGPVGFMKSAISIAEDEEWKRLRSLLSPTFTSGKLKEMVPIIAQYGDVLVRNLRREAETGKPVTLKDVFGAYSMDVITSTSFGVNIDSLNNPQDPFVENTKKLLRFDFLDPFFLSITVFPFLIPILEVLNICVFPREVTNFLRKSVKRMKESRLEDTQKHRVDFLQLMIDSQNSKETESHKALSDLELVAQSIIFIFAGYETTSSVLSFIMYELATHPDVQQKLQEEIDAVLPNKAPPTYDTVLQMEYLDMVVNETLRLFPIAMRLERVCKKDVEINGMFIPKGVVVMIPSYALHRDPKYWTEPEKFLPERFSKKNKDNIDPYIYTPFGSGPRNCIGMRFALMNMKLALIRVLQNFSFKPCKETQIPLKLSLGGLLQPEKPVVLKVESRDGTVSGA

[2] = system: sheep red blood cells (RBC); test: Photohemolysis test (Test Example 13); format: cell-based; settings: 0.0008 to 0.1 w/v %, 10 J/cm2 UV-irradiation (290-400 nm)
Text: Aliquots of sheep red blood cells (RBC) suspension prepared with medium to make a 2.5 v/v % concentration are dispensed into microplates. The compound of the present invention was desolved with a vehicle to make target concentrations and then these solutions were immediately added (in concentrations of 0.0008 to 0.1 w/v %) into the microplates. The mixtures on the microplates were exposed to 10 J/cm2 of UV-irradiation (UV-A and UV-B, 290-400 nm) with a GL20SE lamp (SANKYO DENKI) and a FL20S-BLB lamp (Panasonic). After the UV-irradiation, the mixtures were centrifuged. Aliquots of supernatant were transferred to a microplate. Absorbance of the supernatants was measured at 540 nm and 630 nm for judgement of the potential of phototoxicity. In the study, two endpoints were evaluated in biomembrane impairment (% of photohemolysis index; PI) and hyperoxidation of lipid membrane (methemoglobin formation; met-Hb) with the absorbance at 540 nm and 630 nm, respectively. PI and met-Hb were assessed based on the negative criteria (−), PI<10% and changes in absorbance at 630 nm<0.05, respectively. All else was judged as positive (+).

HIV (HTLV-IIIB strain) = test: HIV replication inhibition assay (Test Example 1; MT-4 cells, MTT); format: cell-based; settings: MT-4 cells, MTT; for EC50: read-out: EC50; for EC90: read-out: EC90
Protocol: HIV (HTLV-IIIB strain) persistent infected human T cell strain Molt-4 clone8 was cultured in RPMI-1640 medium supplemented with 10% fetal bovine serum and the supernatant was filtered, then the virus titer was measured and stored at −80° C. Each anti-human immunodeficiency virus active substance was diluted with the above culture medium to the designated concentration, which was dispensed into 96-well microtiter plate by 50 μL. Next, 100 μL of MT-4 cell suspension (2.5×10^4 cells) was dispensed into each well, then 50 μl of the above HIV-containing supernatant diluted with the above culture medium was added thereto (60 pfu (plaque forming unit)).
Cell mixture was cultured at 37° C. in CO2 incubator for four days, then 30 μL of MTT (3-(4,5-dimethylthiazole-2-yl)-2,5-diphenyltetrazolyum bromide) reagent (5 mg/mL in PBS) was added to all wells followed by incubation for 1 hour. In this step, MTT was reduced to insoluble formazan in living cells. To elute generated formazan 150 μL of the culture supernatant was removed from all wells, then 150 μL of cell lysis solution (10% Triton X-100 and 0.4% (v/v)-HCl containing isopropanol) was added thereto, followed by shaking with a plate mixer. The formazan was measured with micro plate reader at OD: 560 nm and 690 nm (reference wavelength) and the result was compared with the reference wells. EC50 and EC90 mean the compound concentration at which cytotoxicity caused by virus infection is inhibited 50% and 90%, respectively.

[3] = Human immunodeficiency virus 1, MT4, read-out: EC50 against T125A mutant virus, T125A mutant virus (HIV-1 NL-432 IN gene), MT-4 cells, MTT
[4] = Human immunodeficiency virus 1, MT4, 96 h, HIV (HTLV-IIIB strain), four days
[5] = T125A mutant virus (HIV-1 NL-432 IN gene), MT-4 cells, MTT, read-out: EC50 against T125A mutant virus
[6] = HIV (HTLV-IIIB strain), four days
[7] = HIV HTLV-IIIB strain, cultured four days

Sequence of CYP2C9 (P11712 whole entry): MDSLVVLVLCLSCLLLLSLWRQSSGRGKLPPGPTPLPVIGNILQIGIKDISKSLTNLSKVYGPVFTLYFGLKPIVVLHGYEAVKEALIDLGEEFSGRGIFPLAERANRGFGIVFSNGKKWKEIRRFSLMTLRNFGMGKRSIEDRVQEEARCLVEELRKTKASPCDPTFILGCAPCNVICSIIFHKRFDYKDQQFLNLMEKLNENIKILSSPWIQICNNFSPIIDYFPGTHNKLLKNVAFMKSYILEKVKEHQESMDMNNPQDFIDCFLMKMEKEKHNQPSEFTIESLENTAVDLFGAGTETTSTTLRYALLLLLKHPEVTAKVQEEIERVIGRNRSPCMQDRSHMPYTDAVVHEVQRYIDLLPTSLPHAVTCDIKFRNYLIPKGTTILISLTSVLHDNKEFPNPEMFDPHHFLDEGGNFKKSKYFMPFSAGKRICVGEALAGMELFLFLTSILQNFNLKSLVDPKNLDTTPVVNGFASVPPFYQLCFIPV

| SMILES | IC50 (CYP2C9) [nM] | Potency shift value (HIV) | EC50 [1, 3] [nM] | CYP3A4 (MDZ) MBI, shifted IC (CYP3A4) | Photohemolysis test, potential of phototoxicity (PI and met-Hb) [2] | EC50 (HIV (HTLV-IIIB strain); [4]) [nM] | EC90 (HIV (HTLV-IIIB strain); [4]) [nM] | EC50 [1, 5] [nM] | EC50 (HIV (HTLV-IIIB strain); [6]) [nM] | EC90 (HIV (HTLV-IIIB strain); [6]) [nM] | EC50 (HIV (HTLV-IIIB strain); [7]) [nM] |
| --- | --- | --- | --- | --- | --- | --- | --- | --- | --- | --- | --- |
| Cc1c([C@H](OC(C)(C)C)C(=O)O)c(-c2ccc(Cl)cc2)c2cc(C)n3c2c1N(c1ncc2ccccc2n1)CC3 [Compound I-157] | > 20000 | 12 | 12 | (−) (When a shifted IC was 1.0 or less, this was defined as negative) |  |  |  |  |  |  |  |
| COc1cnc(N2CCn3c(C)cc4c(-c5ccc(Cl)cc5)c([C@H](OC(C)(C)C)C(=O)O)c(C)c2c43)nc1 [Compound I-156] | > 20000 | 12 | 3.6 | (−) (When a shifted IC was 1.0 or less, this was defined as negative) | (−) (negative criteria (−), PI<10% and changes in absorbance at 630 nm<0.05, respectively) | 0.85 | 1.2 |  |  |  |  |
| Cc1ccc(-c2c([C@H](OC(C)(C)C)C(=O)O)c(C)c3c4c2cc(C)n4CCN3c2ncc(CCN3CCCCC3)cn2)cc1 [Compound I-305] | > 20000 | 3.6 |  | (−) (When a shifted IC was 1.0 or less, this was defined as negative) | (−) (negative criteria (−), PI<10% and changes in absorbance at 630 nm<0.05, respectively) |  |  | 12 | 3.7 | 4.9 |  |
| Cc1c([C@H](OC(C)(C)C)C(=O)O)c(-c2ccc(Cl)cc2)c2cc(C)n3c2c1N(c1ncc(F)cn1)CC3 [Compound I-122] | > 20000 | 23 | 5.1 | (−) (When a shifted IC was 1.0 or less, this was defined as negative) | (−) (negative criteria (−), PI<10% and changes in absorbance at 630 nm<0.05, respectively) | 1.3 | 2.9 |  |  |  |  |
| Cc1c([C@H](OC(C)(C)C)C(=O)O)c(-c2ccc(Cl)cc2)c2cc(C)n3c2c1N(S(C)(=O)=O)CC3 [Compound I-019] |  | 16 |  | (−) (When a shifted IC was 1.0 or less, this was defined as negative) |  |  |  | 6.6 | 1.2 | 1.6 |  |
| COCCN1CCn2c(C)cc3c(-c4ccc(C)cc4)c([C@H](OC(C)(C)C)C(=O)O)c(C)c1c32 [Compound I-026] | > 20000 | 13 | 13 |  |  | 0.99 | 1.6 |  |  |  |  |
| Cc1ccc(-c2c([C@H](OC(C)(C)C)C(=O)O)c(Cl)c3c4c2cc(C)n4CCN3C)cc1 [Compound I-187] |  | 11 |  | (−) (When a shifted IC was 1.0 or less, this was defined as negative) |  |  |  | 4.8 |  | 2.2 | 1 |
| Cc1c([C@H](OC(C)(C)C)C(=O)O)c(-c2ccc(F)cc2)c2cc(C)n3c2c1N(C)CC3 [Compound I-048] | > 20000 | 9.2 | 11 |  | (−) (negative criteria (−), PI<10% and changes in absorbance at 630 nm<0.05, respectively) | 1.2 | 1.5 |  |  |  |  |
| Cc1ccc(-c2c([C@H](OC(C)(C)C)C(=O)O)c(C)c3c4c2cc(C)n4CCN3S(C)(=O)=O)cc1 [Compound I-003] |  | 14 | 8.9 | (−) (When a shifted IC was 1.0 or less, this was defined as negative) | (−) (negative criteria (−), PI<10% and changes in absorbance at 630 nm<0.05, respectively) | 1.3 | 1.7 |  |  |  |  |
| CCOc1cnc(N2CCn3c(C)cc4c(-c5ccc(C)cc5)c([C@H](OC(C)(C)C)C(=O)O)c(C)c2c43)nc1 [Compound I-197] | > 20000 | 32 |  |  | (−) (negative criteria (−), PI<10% and changes in absorbance at 630 nm<0.05, respectively) | 1.3 | 2.2 |  |  |  |  |
| Cc1nc(N2CCn3c(C)cc4c(-c5ccc(Cl)cc5)c([C@H](OC(C)(C)C)C(=O)O)c(C)c2c43)no1 [Compound I-176] |  | 12 |  | (−) (When a shifted IC was 1.0 or less, this was defined as negative) | (−) (negative criteria (−), PI<10% and changes in absorbance at 630 nm<0.05, respectively) |  |  | 4.6 |  | 5.6 | 2.3 |
| Cc1c([C@H](OC(C)(C)C)C(=O)O)c(-c2ccc(Cl)cc2)c2cc(C)n3c2c1N(CCN(C)C)[C@H](C)C3 [Compound I-112] | > 20000 | 3.5 | 18 |  | (−) (negative criteria (−), PI<10% and changes in absorbance at 630 nm<0.05, respectively) | 4.9 | 11 |  |  |  |  |
